# Data reported in US12692253B2, “Antimicrobial compounds and methods” (Curza Global, LLC, priority 2019, dated 2026).
# Tests used:
# [1] = biological target: Rabbit Reticulocyte Lysate (eukaryotic protein synthesis); test: Rabbit reticulocyte lysate luciferase assay (inhibition of eukaryotic protein synthesis); format: biochemical; settings: class by IC50 or % inhibition @ 1 μM, read-out: Rabbit reticulocyte IC50 (μM/% inhib.)
# Method in brief: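 Percent inhibition calculated against water-only controls from luminescence; background set by lysate lacking RNA. Compounds, 8-point 2-fold titration, incubated 90 minutes at 30° C with nuclease-treated rabbit reticulocyte lysate programmed with luciferase control RNA plus complete amino acids.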
# [2] = tested on: E. coli S30 extract (bacterial protein synthesis); test: E. coli S30 extract coupled transcription-translation luciferase assay (inhibition of bacterial protein synthesis); format: biochemical; settings: class by IC50 or % inhibition @ 1 μM, read-out: S30 IC50 (μM/% inhib.)
# Method in brief: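 Luciferase luminescence quantified inhibition of protein synthesis relative to water controls, with no-DNA reactions giving background. Compounds in 2-fold serial dilution (8 levels) were incubated 1 hour at 37 °C with E. coli S30 extract, amino acids and pBESTluc plasmid, then chilled to stop.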
# S. aureus (Sa) = test: Broth microdilution minimum inhibitory concentration (MIC), CLSI; format: cell-based; settings: growth medium supplemented with sodium bicarbonate; for MIC: Staphylococcus aureus, read-out: Sa + bicarb MIC
# Method in brief: (§1)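 CLSI M07-A9 broth microdilution, slightly modified: 8 two-fold compound dilutions in triplicate, CAMHB ± bicarbonate (6.25 or 25 mM final) or 0-50% heat-inactivated human serum; 5×10^4 CFU/well.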
# P. aeruginosa (Pa) = test: as above; format: cell-based; settings: growth medium supplemented with sodium bicarbonate; for MIC: Pseudomonas aeruginosa, read-out: Pa MIC + bicarb
# Method in brief: as §1
# E. faecalis (Ef) = test: as above; format: cell-based; settings: growth medium supplemented with sodium bicarbonate; for MIC: Enterococcus faecalis, read-out: Ef + bicarb MIC
# Method in brief: as §1
# A. baumannn (Ab) = test: as above; format: cell-based; settings: for Ab + bicarb MIC: A. baumannii, growth medium supplemented with sodium bicarbonate; for MIC: Acinetobacter baumannii, read-out: Ab + bicarb MIC
# Method in brief: as §1
# E. coli (Ec) = test: as above; format: cell-based; settings: growth medium supplemented with sodium bicarbonate; for MIC: Escherichia coli, read-out: E. coli + bicarb MIC
# Method in brief: as §1
Structure (SMILES),IC50 [1],IC50 [2],Sa + bicarb MIC (S. aureus (Sa)),Pa MIC + bicarb (P. aeruginosa (Pa)),Ef + bicarb MIC (E. faecalis (Ef)),Ab + bicarb MIC (A. baumannn (Ab)),E. coli + bicarb MIC (E. coli (Ec)),MIC (S. aureus (Sa)),MIC (P. aeruginosa (Pa)),MIC (E. faecalis (Ef)),MIC (A. baumannn (Ab)),MIC (E. coli (Ec))
CC(C)(N)C(=O)N1CCN(C(=O)Nc2ccn(-c3ccc(CN4CCC5(N)CC5C4)cc3)c(=O)n2)CC1 (centres unmarked) [Compound 20],≥ 1 µM,≥ 1 µM,+++ (An MIC value (μg/mL) that is less than 8 μg/mL),+ (An MIC (μg/mL) value that is 32 μg/mL or greater),++ (An MIC value (μg/mL) that is 8 μg/mL or greater and less than 32 μg/mL),+ (An MIC (μg/mL) value that is 32 μg/mL or greater),+++ (An MIC value (μg/mL) that is less than 8 μg/mL),,,,,
CC(C)(N)C(=O)N1CCN(C(=O)Nc2ccn(-c3ccc(CN4CCC5(N)CC5C4)cc3)c(=O)n2)CC1 (centres unmarked) [Compound 23],≥ 1 µM,< 0.5 µM,+++ (An MIC value (μg/mL) that is less than 8 μg/mL),+ (An MIC (μg/mL) value that is 32 μg/mL or greater),+++ (An MIC value (μg/mL) that is less than 8 μg/mL),+ (An MIC (μg/mL) value that is 32 μg/mL or greater),+++ (An MIC value (μg/mL) that is less than 8 μg/mL),,,,,
C[C@](N)(CO)C(=O)N1CCN(C(=O)Nc2ccn(-c3ccc(CN4C[C@@H]5[C@@H](N)[C@@H]5C4)c(Cl)c3)c(=O)n2)CC1 [Compound 25],≥ 1 µM,< 0.5 µM,,,,,,< 8 µg/mL,> 32 µg/mL,> 32 µg/mL,> 32 µg/mL,< 8 µg/mL
C[C@@H]1CN(C(=O)C(C)(C)N)CCN1C(=O)Nc1ccn(-c2ccc(CN3C[C@@H]4[C@@H](N)[C@@H]4C3)cc2)c(=O)n1 [Compound 28],≥ 1 µM,< 0.5 µM,,,,,,< 8 µg/mL,> 32 µg/mL,< 8 µg/mL,> 32 µg/mL,< 8 µg/mL
CC(C)(N)C(=O)N1CCN(C(=O)Nc2ccn(-c3ccc(CN4CC5CCC(C4)C5N)cc3)c(=O)n2)CC1 (centres unmarked) [Compound 29],≥ 1 µM,0.5 to 1 µM,,,,,,< 8 µg/mL,> 32 µg/mL,8 to 32 µg/mL,> 32 µg/mL,< 8 µg/mL
CC(C)(N)C(=O)N1CCN(C(=O)Nc2ccn(-c3ccc(CN4CC[C@H]5[C@H](N)[C@H]5C4)cc3)c(=O)n2)CC1 [Compound 30],≥ 1 µM,< 0.5 µM,,,,,,< 8 µg/mL,8 to 32 µg/mL,< 8 µg/mL,8 to 32 µg/mL,< 8 µg/mL
CC(C)(N)C(=O)N1CCN(C(=O)Nc2ccn(-c3ccc(CN4CCC5(CC4)CC(N)C5)cc3)c(=O)n2)CC1 [Compound 33],≥ 1 µM,< 0.5 µM,,,,,,< 8 µg/mL,8 to 32 µg/mL,< 8 µg/mL,8 to 32 µg/mL,< 8 µg/mL
CC(C)(N)C(=O)N1CCN(C(=O)Nc2ccn(-c3ccc(CN4CC5(CC(N)C5)C4)cc3)c(=O)n2)CC1 [Compound 34],≥ 1 µM,< 0.5 µM,,,,,,< 8 µg/mL,> 32 µg/mL,8 to 32 µg/mL,> 32 µg/mL,< 8 µg/mL
C[C@@](N)(CO)C(=O)N1CCN(C(=O)Nc2ccn(-c3ccc(CN4C[C@@H]5[C@@H](N)[C@@H]5C4)cc3)c(=O)n2)CC1 [Compound 40],≥ 1 µM,< 0.5 µM,,,,,,< 8 µg/mL,> 32 µg/mL,< 8 µg/mL,> 32 µg/mL,< 8 µg/mL
NCC[C@H](N)C(=O)N1CCN(C(=O)Nc2ccn(-c3ccc(CN4C[C@@H]5[C@@H](N)[C@@H]5C4)cc3)c(=O)n2)CC1 [Compound 41],≥ 1 µM,≥ 1 µM,,,,,,> 32 µg/mL,> 32 µg/mL,> 32 µg/mL,> 32 µg/mL,> 32 µg/mL
CC(C)(N)C(=O)N1CCN(C(=O)Nc2ccn(-c3ccc(CN4CC5CC(N)C5C4)cc3)c(=O)n2)CC1 (centres unmarked) [Compound 42],≥ 1 µM,< 0.5 µM,,,,,,8 to 32 µg/mL,> 32 µg/mL,8 to 32 µg/mL,> 32 µg/mL,< 8 µg/mL
C[C@@H]1CN(C(=O)Nc2ccn(-c3ccc(CN4C[C@@H]5[C@@H](N)[C@@H]5C4)cc3)c(=O)n2)CCN1C(=O)[C@@](C)(N)CO [Compound 45],≥ 1 µM,< 0.5 µM,,,,,,< 8 µg/mL,8 to 32 µg/mL,< 8 µg/mL,> 32 µg/mL,< 8 µg/mL
CC(C)(N)CC1CCN(C(=O)Nc2ccn(-c3ccc(CN4C[C@@H]5[C@@H](N)[C@@H]5C4)cc3)c(=O)n2)CC1 [Compound 48],≥ 1 µM,0.5 to 1 µM,,,,,,< 8 µg/mL,> 32 µg/mL,8 to 32 µg/mL,> 32 µg/mL,< 8 µg/mL
NC1CC2(CCN(C(=O)Nc3ccn(-c4ccc(CN5C[C@@H]6[C@@H](N)[C@@H]6C5)cc4)c(=O)n3)CC2)C1 [Compound 49],≥ 1 µM,< 0.5 µM,,,,,,< 8 µg/mL,> 32 µg/mL,8 to 32 µg/mL,> 32 µg/mL,< 8 µg/mL
COC[C@@](C)(N)C(=O)N1CCN(C(=O)Nc2ccn(-c3ccc(CN4C[C@@H]5[C@@H](N)[C@@H]5C4)cc3)c(=O)n2)CC1 [Compound 53],≥ 1 µM,0.5 to 1 µM,,,,,,< 8 µg/mL,> 32 µg/mL,< 8 µg/mL,> 32 µg/mL,< 8 µg/mL
CC(C)(N)C1CN(C(=O)Nc2ccn(-c3ccc(CN4C[C@@H]5[C@@H](N)[C@@H]5C4)cc3)c(=O)n2)CCO1 (some centres unmarked) [Compound 56],≥ 1 µM,≥ 1 µM,,,,,,> 32 µg/mL,> 32 µg/mL,> 32 µg/mL,> 32 µg/mL,8 to 32 µg/mL
CC(C)(N)C(=O)N1CCN(C(=O)Nc2ccn(-c3ccc(CN4C5CCC4CC(N)C5)cc3)c(=O)n2)CC1 (centres unmarked) [Compound 58],≥ 1 µM,< 0.5 µM,,,,,,< 8 µg/mL,> 32 µg/mL,8 to 32 µg/mL,> 32 µg/mL,< 8 µg/mL
CC(C)(N)C(=O)N1CCN(C(=O)Nc2ccn(-c3ccc(CN4C5CCC4CC(N)C5)cc3)c(=O)n2)CC1 (centres unmarked) [Compound 59],≥ 1 µM,< 0.5 µM,+++ (An MIC value (μg/mL) that is less than 8 μg/mL),+ (An MIC (μg/mL) value that is 32 μg/mL or greater),+++ (An MIC value (μg/mL) that is less than 8 μg/mL),+ (An MIC (μg/mL) value that is 32 μg/mL or greater),+++ (An MIC value (μg/mL) that is less than 8 μg/mL),,,,,
CC(C)(N)C(=O)N1CCN(C(=O)Nc2ccn(-c3ccc(CN4CC5(CCC5N)C4)cc3)c(=O)n2)CC1 (centres unmarked) [Compound 60],≥ 1 µM,< 0.5 µM,,,,,,< 8 µg/mL,> 32 µg/mL,> 32 µg/mL,> 32 µg/mL,< 8 µg/mL
N[C@@H]1[C@H]2CN(Cc3ccc(-n4ccc(NC(=O)N5CCC6(CC5)CNC6)nc4=O)cc3)C[C@@H]12 [Compound 61],≥ 1 µM,≥ 1 µM,,,,,,> 32 µg/mL,> 32 µg/mL,> 32 µg/mL,> 32 µg/mL,8 to 32 µg/mL
